Results: US20180085371A1, “COMBINATION OF PANOBINOSTAT AND RUXOLITINIB IN THE TREATMENT OF CANCER SUCH AS A MYELOPROLIFERATIVE NEOPLASM” (Novartis AG, priority 2011, published 2018)

What was measured:
p-STAT5 = assay: PD marker p-STAT5 by IHC in spleen and bone marrow; format: in vivo, mouse; details: Compound A 60 mg/kg single agent or with Compound B 8 mg/kg
Method: The p-STAT5 PD marker of Compound A and Acetylated Histone H3 PD marker of Compound B were assessed in spleen and bone marrow. Briefly, the spleen was removed in total, weighed and placed on a dissection tray. The spleen was cut transverse in two halves and two equal pieces were taken from the middle parts using a scalpel. Spleen pieces were not allowed to exceed 3-4 mm in thickness. Spleen pieces were transferred into labeled histocassettes and immersion-fixed in neutral buffered formalin (NBF) 10% (v/v) at room temperature (pH 6.8-7.2) (J.T. Baker, Medite, Switzerland). Fixative volume was at least tenfold in excess compared to tissue volume. […]
For histological evaluation, BM cellularity was evaluated as hypercellularity (3+), normocellularity (2+), and hypocellularity (1+). Splenic architecture was evaluated as destroyed (1+) or preserved (0). Presence of myeloid, erythroid and adipocytes cells was evaluated as 0, 1+, 2+, 3+ based on cellularity. […] Whole slide automated quantitative assessment of p-STAT5-positive and -negative cell nuclei were performed using Definiens eCognition software (eCognition version XD 1.5, Definiens AG, Germany). The results were expressed as percent of positive p-STAT5 nuclei out of total nuclei. Staining of acetylated histone H3 was scored as 1+, 2+, 3+ based on staining intensity and number of positive cells.

[1] = Stability of dosing solution at room temperature; format: physicochemical
Method: Compound B was administered as the lactate salt by intraveneous or intraperitoneal injection. The lactic salt of Compound B was formulated in isotonic D5W (5% Dextrose; B. Braun, Lot 395147) at a concentration of 1.5 mg/ml, 1 mg/ml and 0.5 mg/ml, respectively. The solution was stable for up to 10 days at room temperature. Treatment was given 3 times a week at a volume of 10 ml/kg. The final equivalent free-base doses were respectively 11.90, 7.94 and 3.97 mg/kg. In the figures, these doses are reported as whole values.
The mono-phosphate salt of Compound A was formulated in 0.5% HPMC (Pharmacoat 603, Dow Chemical Plaqueline, USA) at a concentration of 7.9 mg/ml. Solution was stable at room temperature for 4 days. Treatment was given bid at a volume of 10 ml/kg. The final equivalent free-base dose was 60 mg/kg.

Acetylated Histone H3 = assay: PD marker acetylated histone H3 by IHC in spleen and bone marrow; format: in vivo, mouse; details: Compound B 8 mg/kg alone or with Compound A 60 mg/kg
Text: Briefly, the spleen was removed in total, weighed and placed on a dissection tray. The spleen was cut transverse in two halves and two equal pieces were taken from the middle parts using a scalpel. […] Baker, Medite, Switzerland). Fixative volume was at least tenfold in excess compared to tissue volume. […] After a last wash in PBS, the tissues were cut up and set with the surface of interest downwards in a universal histocassette followed by processing in a TPC 15Duo (Tissue Processing Center) for paraffinization. From each tissue paraffin block, several 3 μm thick sections were cut on a sliding or rotary microtome (Mikrom International AG, Switzerland), spread in a 45° C. water-bath, mounted on microscope slides (Polysine, VWR International, Leuven, Belgium), and air-dried in an oven at 37° C. overnight. […] Splenic architecture was evaluated as destroyed (1+) or preserved (0). Presence of myeloid, erythroid and adipocytes cells was evaluated as 0, 1+, 2+, 3+ based on cellularity. […] Whole slide automated quantitative assessment of p-STAT5-positive and -negative cell nuclei were performed using Definiens eCognition software (eCognition version XD 1.5, Definiens AG, Germany). The results were expressed as percent of positive p-STAT5 nuclei out of total nuclei.

Row | SMILES | p-STAT5 PD marker (IHC) (p-STAT5) | Stability of solution at room temperature ([1]; mono-phosphate salt in 0.5% HPMC, 7.9 mg/ml) | Acetylated histone H3 (IHC), surrogate readout for deacetylase inhibition (Acetylated Histone H3) | Stability of solution at room temperature ([1]; lactic salt in isotonic D5W (5% Dextrose), 0.5-1.5 mg/ml)
1 | N#CC[C@H](C1CCCC1)n1cc(-c2ncnc3[nH]ccc23)cn1 [Compound A, (R)-3-(4-(7H-pyrrolo[2,3-d]pyrimidin-4-yl)-1H-pyrazol-1-yl)-3-cyclopentylpropanenitrile] | clear reduction | 4 days |  | 
2 | Cc1[nH]c2ccccc2c1CCNCc1ccc(/C=C/C(=O)NO)cc1 [Compound B, N-hydroxy-3-[4-[[[2-(2-methyl-1H-indol-3-yl)-ethyl]-amino]methyl]phenyl]-2E-2-propenamide] |  |  | clear increase | up to 10 days
